From patent US10463695B2, “Methods and compositions for use in the prevention, treatment and/or alleviation of cancer” (priority 2016, dated 2019)
Like-named read-outs stand apart in the source and are kept apart here.

Legend:
[1] = Whole body autoradiography of pregnant mice, cadmium isotope 109Cd; type: in vivo; conditions: for Passage of Cd through the placenta: pregnant mice, intravenous 109CdCl2, about 18th day after conception, autoradiography
Description: (§1) The present inventor commissioned studies where the function of the placenta was investigated using radioactive isotopes of cadmium and zinc. Pregnant female mice were injected intravenously with 8 μc of ^109CdCl2 obtained from Philips Ltd., Eindhoven, Holland. The injection of isotope was made into the tail vein according to standard practice. The mice were injected so that the day of sacrifice coincided approximately with the 18th day after conception, determined by the presence of a vaginal plug after mating. The mice were sacrificed under ether anesthesia by immersion in a mixture of acetone and liquid carbon dioxide (about −80 C). The mice were then sagittally sectioned in a cold room at −10 C according to standard practice, and the sections obtained were affixed to cellulose tape.
(§2) Each section was then apposed to X-ray film together with an isotope reference standard. The sections and films were kept at −10 C until exposure was complete. The determination of the order of cadmium and zinc concentration in different organs was made through densitometric comparison of the autoradiographic exposure caused by the organs, compared to the reference standard.

[2] = cited from earlier work
[3] = Whole body autoradiography of pregnant mice, zinc isotope 65Zn; type: in vivo
Description: as §1, §2

SMILES	Passage of Cd through the placenta [1]	Passage of Cd through the placenta ([1]; listed as 109Cd)	Tissue enrichment of 109Cd ([1]; pregnant mouse, autoradiograph, FIG. 3)	Concentration at which acute toxicity is observed ([2]; cadmium in blood)	Threshold at which medical treatment needs to be initiated ([2]; cadmium, information supplied by VITA Laboratorio)	Passage of Zn through the placenta [3]	Passage of Zn through the placenta ([3]; listed as 65Zn)
[Cd] [Cd, cadmium]	did not pass the placental barrier	no cadmium has passed through the placenta into the fetus	enriched in the liver and kidney, and to some extent in placental tissue	around 50 μng/ml	50 nmol/L		
[Zn] [Zn, zinc]						passed through the placenta and was enriched in the fetal tissue	capable of passing through the placenta
